Source: US20260176270A1 (Exelixis, Inc., priority 2022, published 2026)
Where two headings read alike, the source gives them in different places.

How the values were obtained:
[1] = biological target: T1, PKMYT1 (Homo sapiens, UniProt Q99640); assay: ADP-Glo PKMYT1 ATP-depletion assay; conditions: 50 nM PKMYT1, 13.3 nM CDK1, read-out: Biochemical IC50
T1 construct: PKMYT1 (93 kD, full length, N-terminal GST tag from Signal Chem); GST (N); purchased Signal Chem
T1 sequence (Q99640 1-499): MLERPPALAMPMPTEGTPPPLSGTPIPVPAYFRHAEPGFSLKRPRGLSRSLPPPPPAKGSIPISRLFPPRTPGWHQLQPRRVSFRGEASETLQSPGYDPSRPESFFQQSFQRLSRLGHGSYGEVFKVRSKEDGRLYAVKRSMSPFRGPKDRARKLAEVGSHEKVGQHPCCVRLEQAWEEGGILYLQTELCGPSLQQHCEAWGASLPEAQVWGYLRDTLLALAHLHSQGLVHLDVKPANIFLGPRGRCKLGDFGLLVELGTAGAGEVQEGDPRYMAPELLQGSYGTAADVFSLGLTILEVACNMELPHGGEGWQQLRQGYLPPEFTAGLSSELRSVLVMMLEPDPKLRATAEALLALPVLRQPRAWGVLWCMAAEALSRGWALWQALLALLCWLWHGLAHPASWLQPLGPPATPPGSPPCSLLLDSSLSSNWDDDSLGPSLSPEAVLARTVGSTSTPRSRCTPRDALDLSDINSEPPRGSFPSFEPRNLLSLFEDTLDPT
Summary of the method: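 Full-length N-terminal GST-tagged PKMYT1 (50 nM) with GST-CDK1 (13.3 nM) as substrate and 88 µM ATP, in Hepes buffer with MgCl2, MnCl2, DTT and BSA; DMSO <1%. Incubated 120 min at RT. ADP formed was quantified by ADP-Glo luminescence and used to derive biochemical IC50.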

[2] = test system: phosphorylation of CDK1 at Thr14 in HCC1806 cells; assay: Cell lysate AlphaLISA assay measuring inhibition of phosphorylation of CDK1 Thr14; format: cell-based; conditions: read-out: Cellular IC50
Summary of the method: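 HCC1806 cells seeded overnight, then treated 4 h at 37 °C, 5% CO2 with compounds in DMSO; washed and lysed, lysates frozen overnight at −80 °C. CDK1 Thr14 phosphorylation read by AlphaLISA SureFire Ultra; data normalized to DMSO (0% inhibition) and 3 μM reference compound to give IC50.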

Row | Compound | IC50 [1] [nM] | IC50 ([2]; 4 hours) [nM] | IC50 ([2]; Homo sapiens, HCC1806, 4 h) [nM]
1 | Cc1ccc(O)c(C)c1-c1c(N)c(C(N)=O)cc2cccnc12 (single isomer, unassigned) [Compound 65, (M)-7-Amino-8-(3-hydroxy-2,6-dimethyl-phenyl)quinoline-6-carboxamide] | 500 to 1000 | ≥ 5000 | 
2 | Cc1ccc(O)c(C)c1-c1c(N)c(C(N)=O)cc2cccnc12 (single isomer, unassigned) [Compound 66, (P)-7-amino-8-(3-hydroxy-2,6-dimethyl-phenyl)quinoline-6-carboxamide] | < 50 | 50 to 500 | 
3 | Cc1ccc2[nH]ncc2c1-c1c(N)c(C(N)=O)cc2nccnc12 (single isomer, unassigned) [Compound 78, (P)-7-Amino-8-(5-methyl-1H-indazol-4-yl)quinoxaline-6-carboxamide] | 50 to 500 | 1000 to 5000 | 
4 | Cc1ccc2[nH]ncc2c1-c1c(N)c(C(N)=O)cc2nccnc12 (single isomer, unassigned) [Compound 79, (M)-7-amino-8-(5-methyl-1H-indazol-4-yl)quinoxaline-6-carboxamide] | ≥ 5000 | ≥ 5000 | 
5 | Cc1ccc(O)c(C)c1-c1c(N)c(C(N)=O)cc2nccnc12 (single isomer, unassigned) [Compound 83, (P)-7-Amino-8-(3-hydroxy-2,6-dimethylphenyl)quinoxaline-6-carboxamide] | < 50 | 50 to 500 | 
6 | Cc1ccc(O)c(C)c1-c1c(N)c(C(N)=O)cc2nccnc12 (single isomer, unassigned) [Compound 85, (M)-7-amino-8-(3-hydroxy-2,6-dimethylphenyl)quinoxaline-6-carboxamide] | 1000 to 5000 | ≥ 5000 | 
7 | Cc1c(O)cccc1-c1c(N)c(C(N)=O)cc2nccnc12 (single isomer, unassigned) [Compound 87, (P)-7-Amino-8-(3-hydroxy-2-methylphenyl)quinoxaline-6-carboxamide] | < 50 | 50 to 500 | 
8 | Cc1c(O)cccc1-c1c(N)c(C(N)=O)cc2nccnc12 (single isomer, unassigned) [Compound 89, (M)-7-amino-8-(3-hydroxy-2-methylphenyl)quinoxaline-6-carboxamide] | 1000 to 5000 | ≥ 5000 | 
9 | Cc1nc2cc(C(N)=O)c(N)c(-c3cccc(O)c3C)c2nc1C (single isomer, unassigned) [Compound 92, (P)-7-Amino-8-(3-hydroxy-2-methylphenyl)-2,3-dimethylquinoxaline-6-carboxamide] | < 50 | 50 to 500 | 
10 | Cc1nc2cc(C(N)=O)c(N)c(-c3cccc(O)c3C)c2nc1C (single isomer, unassigned) [Compound 93, (M)-7-Amino-8-(3-hydroxy-2-methylphenyl)-2,3-dimethylquinoxaline-6-carboxamide] | ≥ 5000 | ≥ 5000 | 
11 | NC(=O)c1cc2nccnc2c(-c2cccc(O)c2Cl)c1N (single isomer, unassigned) [Compound 105, (P)-7-Amino-8-(2-chloro-3-hydroxyphenyl)quinoxaline-6-carboxamide] | < 50 | 50 to 500 | 
12 | NC(=O)c1cc2nccnc2c(-c2cccc(O)c2Cl)c1N (single isomer, unassigned) [Compound 106, (M)-7-amino-8-(2-chloro-3-hydroxyphenyl)quinoxaline-6-carboxamide] | ≥ 5000 | ≥ 5000 | 
13 | Cc1ccc(O)c(C)c1-c1c(N)c(C(N)=O)cc2nc(C(F)(F)F)cnc12 (single isomer, unassigned) [Compound 111, (M)-7-Amino-8-(3-hydroxy-2,6-dimethylphenyl)-3-(trifluoromethyl)quinoxaline-6-carboxamide] | 1000 to 5000 | ≥ 5000 | 
14 | Cc1ccc(O)c(C)c1-c1c(N)c(C(N)=O)cc2nc(C(F)(F)F)cnc12 (single isomer, unassigned) [Compound 112, (P)-7-Amino-8-(3-hydroxy-2,6-dimethylphenyl)-3-(trifluoromethyl)quinoxaline-6-carboxamide] | < 50 | 50 to 500 | 
15 | Cc1n[nH]c2cccc(-c3c(N)c(C(N)=O)cc4nccnc34)c12 (single isomer, unassigned) [Compound 118, (M)-7-Amino-8-(3-methyl-1H-indazol-4-yl)quinoxaline-6-carboxamide] | 50 to 500 | 1000 to 5000 | 
16 | Cc1n[nH]c2cccc(-c3c(N)c(C(N)=O)cc4nccnc34)c12 (single isomer, unassigned) [Compound 119, (P)-7-amino-8-(3-methyl-1H-indazol-4-yl)quinoxaline-6-carboxamide] | ≥ 5000 | ≥ 5000 | 
17 | Cc1c(O)cccc1-c1c(N)c(C(N)=O)cc2ncc(C(F)(F)F)nc12 (single isomer, unassigned) [Compound 124, (P)-7-Amino-8-(3-hydroxy-2-methylphenyl)-2-(trifluoromethyl)quinoxaline-6-carboxamide] | < 50 | 50 to 500 | 

Row | Compound | IC50 [1] [nM] | IC50 ([2]; 4 hours) [nM] | IC50 ([2]; Homo sapiens, HCC1806, 4 h) [nM]
18 | Cc1c(O)cccc1-c1c(N)c(C(N)=O)cc2ncc(C(F)(F)F)nc12 (single isomer, unassigned) [Compound 125, (M)-7-Amino-8-(3-hydroxy-2-methylphenyl)-2-(trifluoromethyl)-quinoxaline-6-carboxamide] | 1000 to 5000 | ≥ 5000 | 
19 | Cc1ccc(O)c(C)c1-c1c(N)c(C(N)=O)nc2nccnc12 (single isomer, unassigned) [Compound 127, (P)-7-Amino-8-(3-hydroxy-2,6-dimethylphenyl)pyrido[2,3-b]pyrazine-6-carboxamide] | < 50 | < 50 | 
20 | Cc1ccc(O)c(C)c1-c1c(N)c(C(N)=O)nc2nccnc12 (single isomer, unassigned) [Compound 128, (M)-7-Amino-8-(3-hydroxy-2,6-dimethylphenyl)pyrido[2,3-b]pyrazine-6-carboxamide] | 1000 to 5000 | ≥ 5000 | 
21 | COc1cccc(-c2c(N)c(C(N)=O)nc3cccnc23)c1C [Compound 1, 3-Amino-4-(3-methoxy-2-methylphenyl)-1,5-naphthyridine-2-carboxamide] | ≥ 5000 |  | ≥ 5000
22 | Cc1c(O)cccc1-c1c(N)c(C(N)=O)nc2cccnc12 [Compound 2, 3-Amino-4-(3-hydroxy-2-methylphenyl)-1,5-naphthyridine-2-carboxamide] | < 50 |  | 50 to 500
23 | Cc1ccc(O)c(C)c1-c1c(N)c(C(N)=O)nc2cccnc12 [Compound 3, 3-Amino-4-(3-hydroxy-2,6-dimethylphenyl)-1,5-naphthyridine-2-carboxamide] | < 50 |  | 50 to 500
24 | Cc1ccc2[nH]ncc2c1-c1c(N)c(C(N)=O)nc2cccnc12 [Compound 6, 3-amino-4-(5-methyl-1H-indazol-4-yl)-1,5-naphthyridine-2-carboxamide] | 50 to 500 |  | 1000 to 5000
25 | Cc1c(O)cccc1-c1c(N)c(C(N)=O)nc2nccnc12 [Compound 11, 7-Amino-8-(3-hydroxy-2-methylphenyl)pyrido[2,3-b]pyrazine-6-carboxamide] | < 50 |  | 50 to 500
26 | Cc1ccc(O)c(C)c1-c1cc(C(N)=O)nc2ccccc12 [Compound 12, 4-(3-Hydroxy-2,6-dimethylphenyl)quinoline-2-carboxamide] | 1000 to 5000 |  | 50 to 500
27 | Cc1c(O)cccc1-c1cc(C(N)=O)nc2ccccc12 [Compound 13] | 1000 to 5000 |  | ≥ 5000
28 | NC(=O)c1cc(-c2cccc3[nH]ncc23)c2ccccc2n1 [Compound 14, 4-(1H-Indazol-4-yl)quinoline-2-carboxamide] | ≥ 5000 |  | ≥ 5000
29 | Cc1ccc2[nH]ncc2c1-c1cc(C(N)=O)nc2ccccc12 [Compound 15, 4-(5-Methyl-1H-indazol-4-yl)quinoline-2-carboxamide] | ≥ 5000 |  | ≥ 5000
30 | Cc1ccc2[nH]ncc2c1-c1c(N)c(C(N)=O)nc2ccccc12 [Compound 17, 3-Amino-4-(5-methyl-1H-indazol-4-yl)quinoline-2-carboxamide] | 500 to 1000 |  | ≥ 5000
31 | Cc1c(O)cccc1-c1c(N)c(C(N)=O)nc2ccccc12 [Compound 18, 3-Amino-4-(3-hydroxy-2-methylphenyl)quinoline-2-carboxamide] | 50 to 500 |  | 1000 to 5000
32 | Cc1[nH]nc2cccc(-c3cc(C(N)=O)nc4ccccc34)c12 [Compound 19, 4-(3-Methyl-2H-indazol-4-yl)quinoline-2-carboxamide] | ≥ 5000 |  | ≥ 5000
33 | Cc1ccc(O)c(C)c1-c1c(N)c(C(N)=O)nc2ccc(F)cc12 [Compound 20, 3-Amino-6-fluoro-4-(3-hydroxy-2,6-dimethylphenyl)quinoline-2-carboxamide] | 50 to 500 | 1000 to 5000 | 
